Test results published in patent publication US20250011289A1, “1H-BENZO[B]AZEPIN-2(3H)-ONE COMPOUNDS, COMPOSITIONS AND METHODS OF TREATING CANCER” (Chengdu Anticancer Bioscience, Ltd., priority 2021, published 2025).
Like-named read-outs stand apart in the source and are kept apart here.

Legend:
[1] = tested on: RPE-Neo or RPE-MYC or RPE-MYC expressing an EGFP-Histone 2B fusion protein; assay: Phenotypic screening assay (arrest in mitosis or change in DNA content, IN-Cell Analyzer); assay type: cell-based; conditions: compounds at 20 nM to 20 μM, analysed 24, 48 or 72 hours after initiation of treatment
In short: (§1)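 RPE-Neo, RPE-MYC or RPE-MYC EGFP-Histone 2B cells exposed to compound at 20 nM to 20 μM, 18-24 h after plating. Mitotic arrest or DNA-content change imaged at 24, 48 or 72 h; proliferation by MTT. Values binned A (1 nM–1.0 μM), B (>1.00–10.0 μM), C (>10.0–30.0 μM), D (>30.0–<1000 μM).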

RPE-Neo or RPE-MYC cells = assay: MTT assay of cellular proliferation; assay type: cell-based; conditions: compounds at 20 nM to 20 μM; read-out: Min. Effective conc. for Proliferative arrest (>50%)
In short: as §1

[2] = read-out: Min. Effective conc. for Along with Cell Death
[3] = read-out: Min. Effective conc. for Mitotic Arrest (>5%)
[4] = read-out: Min. Effective conc. for Polyploidy (≥5%)

Structure (SMILES)	minimal effective concentration [1, 2]	minimal effective concentration [1, 3]	minimal effective concentration [1, 4]	minimal effective concentration (RPE-Neo or RPE-MYC cells)
Cc1ccc(C(C)N2C(=O)CC(c3nnc(C4CC4)o3)=C(Br)c3ccccc32)cc1F (centres unmarked) [Compound 40]	1 to 10 µM	1 to 10 µM	1 to 10 µM	1 to 10 µM
Cc1noc(C2=C(Br)c3ccccc3N(Cc3ccc(C)c(F)c3)C(=O)C2)n1 [Compound 18-1, 5-bromo-1-(3-fluoro-4-methylbenzyl)-4-(3-methyl-1,2,4-oxadiazol-5-yl)-1,3-dihydro-2H-benzo[b]azepin-2-one]	0.001 to 1 µM	0.001 to 1 µM	0.001 to 1 µM	0.001 to 1 µM
